Measured values taken from PubChem BioAssay (NCI).
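Grown in 96-well plates, cells were treated for 48 hours with each compound at five concentrations. Insufficient inhibition: endpoint recorded as highest concentration tested. TGI: concentration producing complete growth inhibition.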

How the values were obtained:
Assay in all cases: growth of human tumour cells (NCI), 48 h
[1] = system: NCI-H460 lung
[2] = system: HCC-2998 colon
[3] = system: OVCAR-8 ovarian
[4] = system: UACC-62 melanoma
[5] = system: T-47D breast
[6] = system: EKVX NSCLC
[7] = system: SK-MEL-2 melanoma
[8] = system: MDA-MB-231 breast
[9] = system: NCI-H226 lung
[10] = system: A549 NSCLC
[11] = system: U251 CNS
[12] = system: NCI-H522 lung
[13] = system: SNB-19 CNS
[14] = system: DU-145 prostate
[15] = system: NCI-H23 lung
[16] = system: SK-MEL-5 melanoma
[17] = system: SF-539 CNS
[18] = system: CCRF-CEM leukemia
[19] = system: OVCAR-5 ovarian
[20] = system: MALME-3M melanoma
[21] = system: MOLT-4 leukemia
[22] = system: HCT-116 colon
[23] = system: HT29 colon
[24] = system: RXF 393 renal
[25] = system: NCI/ADR-RES ovarian
[26] = system: HCT-15 colon
[27] = system: COLO 205 colon
[28] = system: SF-268 CNS
[29] = system: HOP-92 NSCLC
[30] = system: SK-MEL-28 melanoma
[31] = system: SF-295 CNS
[32] = system: UACC-257 melanoma
[33] = system: RPMI-8226 leukemia
[34] = system: SR leukemia
[35] = system: TK-10 renal
[36] = system: 786-0 renal
[37] = system: CAKI-1 renal
[38] = system: IGROV1 ovarian
[39] = system: M14 melanoma
[40] = system: OVCAR-3 ovarian
[41] = system: ACHN renal
[42] = system: KM12 colon
[43] = system: MCF7 breast
[44] = system: HL-60(TB) leukemia
[45] = system: MDA-MB-435
[46] = system: SN12C renal
[47] = system: BT-549 breast
[48] = system: SK-OV-3 ovarian
[49] = system: HS 578T breast
[50] = system: SW-620 colon
[51] = system: OVCAR-4 ovarian
[52] = system: UO-31 renal
[53] = system: HOP-62 NSCLC
[54] = system: PC-3 prostate
[55] = system: K-562 leukemia
[56] = system: MDA-N
[57] = system: A498 renal
[58] = system: LOX IMVI melanoma
[59] = system: SNB-75 CNS

Measured: TGI

O=S(=O)(O)c1ccc2c(N=Nc3ccc(N=Nc4ccccc4)cc3)c(O)c(S(=O)(=O)O)cc2c1
> 100 µM: [1] | [2] | [3] | [4] | [5] | [6] | [7] | [8] | [9] | [10] | [11] | [12] | [13] | [14] | [15] | [16] | [17] | [18] | [19] | [20] | [21] | [22] | [23] | [24] | [25] | [26] | [27] | [28] | [29] | [30] | [31] | [32] | [33] | [34] | [35] | [36] | [37] | [38] | [39] | [40] | [41] | [42] | [43] | [44] | [45] | [46] | [47] | [48] | [49] | [50] | [51] | [52] | [53] | [54] | [55] | [56]

COc1cc(C2SCC(=O)N2c2ccc(NC(C)=O)cc2)cc(OC)c1OC (configuration not stated)
> 100 µM: [1] | [2] | [3] | [4] | [5] | [6] | [7] | [8] | [9] | [10] | [11] | [12] | [13] | [14] | [15] | [16] | [17] | [18] | [57] | [19] | [21] | [22] | [23] | [25] | [26] | [27] | [28] | [29] | [30] | [31] | [32] | [33] | [34] | [35] | [36] | [37] | [38] | [39] | [40] | [41] | [42] | [43] | [44] | [45] | [46] | [47] | [48] | [49] | [50] | [58] | [51] | [52] | [54] | [55] | [56]

COc1cc(C(c2cccc3ccccc23)N2C(=O)CCC2C(=O)O)cc(OC)c1OC (configuration not stated)
> 100 µM: [1] | [3] | [4] | [5] | [6] | [7] | [8] | [9] | [10] | [11] | [12] | [13] | [14] | [15] | [16] | [17] | [18] | [57] | [19] | [20] | [21] | [22] | [23] | [24] | [25] | [26] | [27] | [28] | [29] | [30] | [31] | [32] | [33] | [34] | [59] | [36] | [37] | [38] | [39] | [40] | [41] | [42] | [43] | [44] | [45] | [46] | [47] | [48] | [49] | [50] | [51] | [52] | [53] | [54] | [55] | [56]
